Experimental data from patent publication US20170290854A1, “COMPOSITIONS AND METHODS FOR TREATING AND PREVENTING BACTERIAL INFECTIONS” (K10 Technologies, Inc., priority 2014, published 2017).

Tests used:
Test in all cases: MIC assay (Experiments II)
Format in all cases: cell-based
[1] = test system: Streptococcus pneumonia ATCC 49619; details: Streptococcus pneumoniae, ATCC49619; S. pneumonia ATCC 49619; 24 hours; read-out: Minimal inhibitory concentration
Method: (§1) A test sample of water containing water clusters at a concentration of approximately 150 million water clusters per drop of water, with an average water droplet size of 500 microns in diameter, was stored at room temperature until required. The sample of water was prepared according to the methods described in S. Y. Lo et al., Evidence for the existence of stable-water-clusters at room temperature and normal pressure. Physics Letters A (2009)). Linezolid diluted in dimethyl sulfoxide was used as a control.
(§2) The test sample of water containing water clusters was added to the first well of a 96-well plate. 2-fold dilutions were performed into all of the wells of that row containing cation-adjusted Mueller-Hinton Broth (CA-MHB) with 5% lysed horse blood except for the last well, which was used as a control without any testing agent. This was repeated in Brain Heart Infusion (BHI) broth. The Linezolid control followed a similar protocol but was diluted to 8 μg/mL in the first well, followed by 2-fold serial dilutions into both CA-MHB with 5% lysed horse blood and BHI broth.
(§3) Streptococcus mutans ATCC 31341, Streptococcus pneumonia ATCC 49619, and Streptococcus pyogenes ATCC 51339 were obtained from the American Type Culture Collection (Manassas, Va.). All strains were maintained as frozen glycerol stocks at −80° C. Working stocks were prepared by streaking bacteria onto Sheep Blood Agar plates, growing at 37° C. with 5% CO2 for 24 hours and suspending isolated colonies in 3 mL of 0.9% sterile saline to approximately 1×10^8 CFU/mL.
(§4) Bacterial working stocks were diluted into appropriate liquid media for a final inocula of about 5×10^6 CFU/mL. CA-MHB with 5% lysed horse blood was used for all the Streptococcus spp. While BHI broth was also used for S. mutans. 10 μL of stock suspension was added to each well of a 96-well MIC plate treated with the test sample of water containing water clusters. […] The plates were incubated at 35° C. with 5% CO2 for a full 24 hours before reading.

[2] = test system: Streptococcus pyogenes ATCC 51339; details: ATCC51339, S. pyogenes ATCC 51339, 24 hours, read-out: Minimal inhibitory concentration
Method: as §1, §2, §3, §4

[3] = test system: Streptococcus mutans ATCC 31341; details: ATCC31341, S. mutans ATCC 31341, 24 hours, read-out: Minimal inhibitory concentration
Method: as §1, §2, §3, §4

Measured: MIC

CC(=O)NC[C@H]1CN(c2ccc(N3CCOCC3)c(F)c2)C(=O)O1 [Linezolid]
1 mg/L: [1] | [2] | [3]
